Measurements published in patent US12459930B2, “Compounds for the inhibition of unregulated cell growth” (GODAVARI BIOREFINERIES LIMITED, priority 2018, dated 2025).

How the values were obtained:
[1] = tested on: PC3 prostate cancer cell line; assay: Soft agar colony-formation assay, PC3; format: cell-based; details: 168 h, 1 week, Alamar Blue, read-out: IC50 in micromolar, PC3 (Soft Agar Assay)
Description: (§1) The Soft Agar Colony-formation Assay is an anchorage-independent growth assay in soft agar, which is one of the most stringent assays for detecting malignant transformation of cells. For this assay, malignant cells are cultured with appropriate controls in soft agar medium for 1-2 weeks. Following this incubation period, formed colonies can either be analyzed morphologically using cell stain and quantifying the number of colonies formed.
(§2) Briefly, for Soft Agar Assay a mixture of 50 ul of 2× medium (taken appropriately as per cell line) and 50 ul of 1.2% Bacto Agar were plated on to each well of 96 well micro titer assay plate. 10 ul of cells (of specific plating efficiency pre standardized for respective cell line) were mixed with 20 ul of 2× medium and 30 ul of 0.8% of Bacto Agar and 1.6 ul of drug (of appropriate concentration) in a vial and transferred to the solidified pre layers of the assay plates. The cells were then allowed to grow and form colonies at 37° C. and 5% C02 for 1 week. An intermittent feeding with 50 ul of appropriate 2× medium was performed after 3 days of experimental set up. 16 ul of Alamar Blue (1.5 mg/ml) was then added to all the wells to quantify the developed colonies. The plates were incubated for 24 hrs at 37° C. Absorbance was then measured at 630 nm. XY graph of log Percent viability was then plotted against log drug concentration.
(§3) Following plating efficiencies were standardized for Soft Agar Assay: […]

[2] = tested on: DU145 prostate cancer cell line; assay: In vitro antiproliferative assay (MTT assay), DU145; format: cell-based; details: Homo sapiens, DU-145, 48 h, 48 hrs drug incubation, read-out: IC50 in micromolar, DU145 (MTT assay)
Description: (§4) MTT assay is a simple and sensitive assay where, metabolic reducing activity of the cells is measured. The increase of this activity in time is taken as a parameter of cell growth. If treatment with a drug impairs this increase, the action is a consequence of growth inhibition, cell killing or both. […] All cell lines were cultured in a 37° C. incubator with a 5% CO2 environment. Compounds were dissolved in DMSO with a concentration of 0.1M (stock solution). Cells were seeded into 96-well plates at suitable plating efficiency.
(§5) Following plating efficiencies were standardized for MTT assay:
(§6) In the MTT procedure, the cells were plated in 96 well plates as per predetermined plating efficiency (Table1). The plates were then incubated for 24 hrs in 5% CO2 atmosphere at 37° C. Appropriate concentrations of the drugs were then added to the plate and further incubation was carried out for 48 hrs (in 5% CO2 atmosphere at 37° C.). The assay plate was then centrifuged twice at 3000 rpm for 3 mins and supernatant was then discarded. 100 ul of MTT solution (0.5 mg/ml) was then added to each well of the plate and it was further incubated for 4 hrs (in 5% CO2 atmosphere at 37° C.) Following 4 hr incubation, the plate was then centrifuged twice, and supernatant was aspirated off very carefully. 200 ul of DMSO was then added to each well to solubilize. MTT crystals and mixed well by shaking the plate. XY graph of log percent viability was then plotted against log drug concentration.

[3] = tested on: MDAMB231 spheres (cancer stem cells); assay: In vitro sphere-forming assay (cancer stem cells), MDAMB231 in Mammosphere media; details: for 3D sphere count of MDAMB231 in Mammosphere media: 2000 cells/well, n = 6 ± S.D; for viability at 0.0025 µM / viability at 0.025 µM / viability at 0.25 µM / viability at 2.5 µM / viability at 25 µM: Homo sapiens, MDA-MB-231, read-out: % Viability of spheres (MDAMB231)
Description: (§7) In Vitro Sphere-forming Assay: Sphere assay measures the ability of cancer stem cells (CSCs) to form spheres in specially designed serum-free medium.
Mammosphere Media Preparation (For 100 mL): 1 g methyl cellulose autoclaved with magnetic stirrer, 100 ml plain media (MEBM) was added and dissolved under magnetic stirring. After complete dissolution FGF—80 μL, EGF—40 μL, Penstrep—1 mL, Heparin—400 μL was added.
(§8) Procedure—The cells were trypsinised and made into single-cell suspension by passing through cell strainers (100 μl and 40 μl, respectively), The cells were diluted at a concentration of 2000 cells/100 μL and suspended in either Mammosphere (for breast cell lines) or Prostosphere (for prostate cell lines). 100 μL of this suspension was added into each well of 96-well suspension plates and incubated at 37 C, 50 CO2 for 24 hrs. Appropriate concentrations of the drugs (2 L) were added into respective wells with 100 μL of stem cell culture medium. Plates were incubated at 37° C., 50% CO2 for 72 hrs. After incubation, 2.5 μL of the respective drug concentration and 50 μL of stem cell culture medium were added into each well and the plates were further incubated at 37° C., 500 CO2 for 72 hrs. 3 μL of the respective drug concentration was added with 50 μL of stem cell culture medium again after incubation and plates were reincubated for 72 hrs at 37° C., 500 CO2. Number of primary spheres formed for each concentration were counted. The spheres were converted to 0 viability of spheres compared to untreated (Growth Control with DMSO, GCD).

[4] = tested on: PC3 spheres (cancer stem cells); assay: In vitro sphere-forming assay (cancer stem cells), PC3 in Prostosphere media; details: for 3D sphere count of PC3 in Prostosphere media: 2000 cells/well, n = 6 ± S.D; for viability at 0.0025 µM: read-out: % Viability of spheres (PC3), 0.0025 uM; for viability at 0.0025 µM / viability at 0.025 µM / viability at 0.25 µM / viability at 2.5 µM / viability at 25 µM: GCD = 100% viability; for viability at 0.025 µM: read-out: % Viability of spheres (PC3), 0.025 uM; for viability at 0.25 µM: read-out: % Viability of spheres (PC3), 0.25 uM; for viability at 2.5 µM: read-out: % Viability of spheres (PC3), 2.5 uM; for viability at 25 µM: read-out: % Viability of spheres (PC3), 25 uM
Description: as §7
Materials and Reagents:50×B27 Supplement (Life Technologies, Invitrogen, Catlog No.: 17502-044), Fibroblast Growth Factor (FGF) (Sigma-Aldrich, Catlog No.: F029125), Epidermal Growth Factor (EGF) (Sigma-Aldrich, Catlog No.: E9644), Insulin (Sigma, Catlog No.: 19278), Dulbecco's Modified Eagle Medium/F12 (HiMedia Catlog No.: AL139-6), Dulbecco's Phosphate Buffered Saline (HiMedia Catlog No.: TL1006), Trypan Blue (TC193), Prostate Epithelial Media (LONZA, Catlog No.: CC-3166) MEGM (LONZA, Catlog No.: CC-3051), Heparin (Sigma, Catlog No.: H3393), Penstrep (HiMedia, Catlog No.: A002)
Prostosphere Media Preparation (For 100 mL): 1 g methyl cellulose autoclaved with magnetic stirrer, 100 mL plain media (Prostate Epithelial Basal Medium) was added and dissolved, under magnetic stirring. After complete dissolution, Insulin—40 μL, B27—2 mL, EGF—80 μL, Penstrep—1 ml was added.
as §8

[5] = tested on: PC3 prostate cancer cell line; assay: In vitro antiproliferative assay (MTT assay), PC3; format: cell-based; details: 48 h, 48 hrs drug incubation, read-out: IC50 in micromolar, PC3 (MTT assay)
Description: as §4, §5, §6

[6] = tested on: MDAMB231 breast cancer cell line; assay: Soft agar colony-formation assay, MDAMB231; format: cell-based; details: Homo sapiens, MDA-MB-231, 168 h, 1 week, Alamar Blue, read-out: IC50 in micromolar, MDAMB231 (Soft Agar Assay)
Description: as §1, §2, §3

[7] = tested on: MDAMB231 breast cancer cell line; assay: In vitro antiproliferative assay (MTT assay), MDAMB231; format: cell-based; details: Homo sapiens, MDA-MB-231, 48 h, 48 hrs drug incubation, read-out: IC50 in micromolar, MDAMB231 (MTT assay)
Description: as §4, §5, §6

Row | Compound | IC50 [1] [µM] | IC50 [2] [µM] | 3D sphere count of MDAMB231 in Mammosphere media ([3]; 0.0025 uM) | 3D sphere count of MDAMB231 in Mammosphere media ([3]; 0.025 uM) | 3D sphere count of MDAMB231 in Mammosphere media ([3]; 0.25 uM) | 3D sphere count of MDAMB231 in Mammosphere media ([3]; 2.5 uM) | 3D sphere count of MDAMB231 in Mammosphere media ([3]; 25 uM) | viability at 0.0025 µM [3] [%] | viability at 0.025 µM [3] [%] | viability at 0.25 µM [3] [%] | viability at 2.5 µM [3] [%] | viability at 25 µM [3] [%] | 3D sphere count of PC3 in Prostosphere media ([4]; 0.0025 uM) | 3D sphere count of PC3 in Prostosphere media ([4]; 0.025 uM) | 3D sphere count of PC3 in Prostosphere media ([4]; 0.25 uM) | 3D sphere count of PC3 in Prostosphere media ([4]; 2.5 uM) | 3D sphere count of PC3 in Prostosphere media ([4]; 25 uM) | viability at 0.0025 µM [4] [%] | viability at 0.025 µM [4] [%] | viability at 0.25 µM [4] [%] | further results
1 | O=C1OCc2c1c(-c1ccc3c(c1)OCO3)c1cc3c(cc1c2OCCN1CCOCC1)OCO3 [Formula XI, 4-(2-morpholinoethoxy)-9-(benzo[d][1,3]dioxol-5-yl)-6,7-methylenedioxynaphtho[2,3-c]furan-1(3H)-one] | 5.12 | 8.18 | 51(±3) | 41(±3) | 31(±3) | 20(±3) | 0(±0) | 64 | 52 | 39 | 25 | 0 | 51(±3) | 43(±3) | 32(±4) | 21(±3) | 0(±0) | 62 | 52 | 39 | viability at 2.5 µM [4]: 25%; viability at 25 µM [4]: 0%; IC50 [5]: 12.6 µM; IC50 [6]: 2.7 µM; IC50 [7]: 3.2 µM
2 | c1ccc2c(-c3ccc4c(c3)OCO4)ccc(OCCN3CCOCC3)c2c1 [Formula X, 4-(2-(1-(benzo[d][1,3]dioxol-5-yl)naphthalen-4-yloxy)ethyl)morpholine] | 10.3 | 5.96 | 57(±5) | 42(±4) | 34(±3) | 21(±3) | 7(±3) | 69 | 51 | 41 | 25 | 8 | 74(±4) | 61(±3) | 53(±3) | 42(±4) | 28(±3) | 87 | 72 | 62 | viability at 2.5 µM [4]: 49%; viability at 25 µM [4]: 33%; IC50 [5]: 4 µM; IC50 [6]: 4.18 µM; IC50 [7]: 5.36 µM
3 | CN1CCN(CCCCOc2ccc(-c3ccc4c(c3)OCO4)c3c2CCCC3)CC1 [Formula XIX, 1-(4-(5-(benzo[d][1,3]dioxol-5-yl)-1,2,3,4-tetrahydronaphthalen-8-yloxy)butyl)-4-methylpiperazine] | 5.12 | 2.04 | 48(±4) | 40(±4) | 34(±3) | 23(±5) | 13(±2) | 61 | 50 | 43 | 29 | 16 | 51(±3) | 40(±3) | 35(±3) | 25(±3) | 13(±2) | 62 | 48 | 42 | viability at 2.5 µM [4]: 30%; viability at 25 µM [4]: 15%; IC50 [5]: 3.71 µM; IC50 [6]: 3.41 µM; IC50 [7]: 2.14 µM

These reach a lower IC50 [1]. Values come first.

Row | IC50 [1] [µM] | IC50 [2] [µM] | Compound | 3D sphere count of MDAMB231 in Mammosphere media ([3]; 0.0025 uM) | 3D sphere count of MDAMB231 in Mammosphere media ([3]; 0.025 uM) | 3D sphere count of MDAMB231 in Mammosphere media ([3]; 0.25 uM) | 3D sphere count of MDAMB231 in Mammosphere media ([3]; 2.5 uM) | 3D sphere count of MDAMB231 in Mammosphere media ([3]; 25 uM) | viability at 0.0025 µM [3] [%] | viability at 0.025 µM [3] [%] | viability at 0.25 µM [3] [%] | viability at 2.5 µM [3] [%] | viability at 25 µM [3] [%] | 3D sphere count of PC3 in Prostosphere media ([4]; 0.0025 uM) | 3D sphere count of PC3 in Prostosphere media ([4]; 0.025 uM) | 3D sphere count of PC3 in Prostosphere media ([4]; 0.25 uM) | 3D sphere count of PC3 in Prostosphere media ([4]; 2.5 uM) | 3D sphere count of PC3 in Prostosphere media ([4]; 25 uM) | viability at 0.0025 µM [4] [%] | viability at 0.025 µM [4] [%] | viability at 0.25 µM [4] [%] | further results
4 | 3.31 | 3.87 | c1cc2c(cc1-c1ccc(OCCCCCCN3CCOCC3)c3c1CCCC3)OCO2 [Formula XX, 4-(6-(5-(benzo[d][1,3]dioxol-5-yl)-1,2,3,4-tetrahydronaphthalen-8-yloxy)hexyl) morpholine] | 48(±4) | 37(±4) | 27(±3) | 14(±4) | 0(±0) | 61 | 47 | 34 | 17 | 0 | 48(±5) | 37(±2) | 33(±4) | 15(±3) | 0(±0) | 58 | 45 | 40 | viability at 2.5 µM [4]: 18%; viability at 25 µM [4]: 0%; IC50 [5]: 3.34 µM; IC50 [6]: 3.78 µM; IC50 [7]: 3.04 µM
5 | 2.63 | 0.348 | c1cc2c(cc1-c1ccc(OCCCCCCNC3CCCCC3)c3c1CCCC3)OCO2 [Formula XVIII, N-(6-(5-(benzo[d][1,3]dioxol-5-yl)-1,2,3,4-tetrahydronaphthalen-8-yloxy)hexyl) cyclohexanamine] | 54(±3) | 49(±4) | 39(±2) | 28(±3) | 19(±1) | 65 | 58 | 45 | 34 | 24 | 50(±4) | 43(±5) | 39(±3) | 27(±4) | 19(±3) | 63 | 54 | 49 | viability at 2.5 µM [4]: 34%; viability at 25 µM [4]: 24%; IC50 [5]: 0.32 µM; IC50 [6]: 4.18 µM; IC50 [7]: 0.398 µM
